Source: patent US9034303B2, “Neuroprotective and neuro-restorative iron chelators and monoamine oxidase inhibitors and uses thereof” (priority 2010, dated 2015)
Entries after “also recorded” stand apart in the source; their conditions may differ. Like-named read-outs stand apart in the source and are kept apart here. Marks after values point to notes of the source that are not given here. Blank lines part the entries; values can stand above or below the compound they belong to.

Tests used:
[1] = Stability in aqueous solution (PBS or saline) followed by HPLC; format: physicochemical; settings: for Stability in aqueous solution (in words): PBS and/or saline solution; for Amount of compound remaining (%): 0.5 mM
Procedure: (§1) Using high pressure liquid chromatography (HPLC), the stability of each of the tested compounds was determined by following its respective chemical character over time in either phosphate buffered saline (PBS) and/or 0.85% saline solution (sodium chloride). In each case, 0.5 mM of the tested compound in PBS or saline solution was incubated at 25° C. or at 37° C. for 20 hours or, in some cases, up to two days (48 hours).

[2] = Follow-up stability experiment at 37° C. in PBS; format: physicochemical
Procedure: as §1
In addition, in a follow-up experiment the instability of M30, and the stability of compounds 3, 7 and 8 was also confirmed at 37° C. in PBS, Table 2, below.

[3] = tested on: HepG2 cells; experiment: Cytotoxicity in presence and absence of exogenous iron, HepG2; format: cell-based, human; settings: iron alone, 20 μM
Procedure: (§2) The potential of compound 3 to be toxic in the presence of free iron was also tested. The iron complexation method was based on the method of Leanderson and Tagesson (Carcinogenesis, 17, 545-550, 1996) with some modifications. Iron (III) was prepared from ferric ammonium citrate (Sigma, F5879) at 80 mM in sterile distilled water. Compound 3 was prepared at a 200 mM concentration in DMSO. Before each experiment, the freshly prepared iron (III) solution was diluted to 0.4 mM in PBS II (PBS containing 0.90 mM Ca^2+ and 0.49 mM Mg^2+). Compound 3 stock solutions were diluted to 2, 0.2, and 0.02 mM with PBS II. Equal volumes of the 0.4 mM iron (III) solution and compound 3 solutions were added together to prepare iron/test article complex solutions containing 1, 0.1, and 0.01 mM compound 3 and 0.2 mM iron (III). The compound 3 DMSO stock solution was diluted in PBS II at 1, 0.1, or 0.01 mM and used as compound 3 control without iron. An equal volume of the 0.4 mM iron (III) solution was diluted in PBS II to prepare a control containing only iron.
(§3) The medium was removed from the plated cells (both cell lines) and replaced with fresh medium (90 μL). Iron/compound 3 complex or compound 3 in PBS II without iron was added to cells in triplicate (10 μL) to final compound 3 concentrations of 100, 10, and 1 μM and an iron (III) concentration of 20 μM. Wells containing no cells were used as the background control. PBS II was run as vehicle control. Iron only was run at a final concentration of 20 μM.
(§4) Cell viability was determined as described above and cytotoxicity was compared between treatments with and without iron complexation.

[4] = tested on: SHSY-5Y cells; experiment: Cytotoxicity in presence and absence of exogenous iron, SH-SY5Y; format: cell-based, human; settings: iron alone, 20 μM
Procedure: as §2, §3, §4

[5] = biological target: rat brain MAO-B (Rattus norvegicus (Rat), UniProt P19643); experiment: In vitro inhibition of rat brain MAO-B (14C-PEA substrate); format: biochemical; settings: for IC50: estimated from FIG. 2, rat brain MAO-B, read-out: MAO-B IC50
Chain of rat brain MAO-B (P19643 whole entry): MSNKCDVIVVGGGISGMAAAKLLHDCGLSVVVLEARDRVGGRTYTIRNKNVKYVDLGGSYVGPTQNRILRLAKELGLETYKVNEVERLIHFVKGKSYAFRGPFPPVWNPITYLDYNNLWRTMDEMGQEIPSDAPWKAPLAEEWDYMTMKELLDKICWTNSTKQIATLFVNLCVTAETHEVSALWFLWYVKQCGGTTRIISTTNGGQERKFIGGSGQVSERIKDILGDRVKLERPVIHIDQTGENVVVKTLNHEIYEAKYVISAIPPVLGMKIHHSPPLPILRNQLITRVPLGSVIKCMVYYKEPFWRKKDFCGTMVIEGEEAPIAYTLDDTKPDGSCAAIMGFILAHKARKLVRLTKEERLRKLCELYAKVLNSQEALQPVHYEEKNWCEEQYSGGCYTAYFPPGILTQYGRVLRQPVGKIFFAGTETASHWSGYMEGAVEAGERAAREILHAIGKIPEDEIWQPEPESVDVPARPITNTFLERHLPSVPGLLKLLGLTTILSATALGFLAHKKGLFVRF
Procedure: (§5) Rats are decapitated and the brains quickly taken into a weighted ice-cold sucrose buffer (0.32 M) and their weights determined. All subsequent procedures are performed at 0° C. The brains are homogenized in 0.32 M sucrose (one part tissue to 20 parts sucrose) in a Teflon glass homogenizer followed by the addition of sucrose buffer to a final concentration of 10% homogenate. The homogenates are centrifuged at 600 g for 15 min. The supernatant fractions are taken out and centrifuged at 4500 g for 30 min, the pellet diluted in 0.32 M sucrose buffer and kept frozen for later assaying of MAO.
(§6) MAO-A and MAO-B activities are determined in rat brain homogenate in vitro following incubation with varying concentrations of the test compounds.
The in vitro inhibitory activity of the compounds is tested against rat brain MAO-B. The test compounds are added to buffer containing 10^−7 M clorgylin and are incubated with the tissue homogenate for 30 or 60 min at 37° C. before addition of ^14C-PEA.
(§7) The test compound was added to a suitable dilution of the enzyme preparation (70 μg protein for MAO-B and 150 μg MAO-A assay) in 0.1 M phosphate buffer (pH 7.4). The mixture was incubated together with […], a specific inhibitor of MAO-B (for determination of MAO-A) or 0.05 M clorgylin, a specific inhibitor of MAO-A (for determination of MAO-B). Incubation was carried for 0.5 or 1 h at 37° C. before addition of ^14C-5-hydroxytryptamine binoxalate (5-HT) (100 or 400 μM) for determination of MAO-A, or ^14C-phenylethylamine (^14C-PEA) 100 or 400 μM for determination of MAO-B, and incubation continued for 30 min or 20 min, respectively. The reaction was stopped with 2 M ice-cold citric acid, and the metabolites were extracted and determined by liquid-scintillation counting in cpm units.
The reaction was stopped with 2 M ice-cold citric acid, and the metabolites were extracted with ethyl acetate and levels of radioactivity were determined by liquid-scintillation counting in CPM units. All assays were performed at least in duplicate and outcome was expressed as a mean±SEM. Data were analyzed by a Student's t test. Variations were considered statistically significant at a p value of 0.05.
(§8) MAO-A and MAO-B activity was measured using radioactive substrates. The substrate for MAO-A was 5 HT and for MAO-B was PEA. When measuring the activity of MAO-A, the MAO-B activity was inhibited with deprenyl and when measuring the activity of MAO-B the activity of MAO-A was inhibited with clorgylin. Blank samples were produced using TCP to inhibit both of the enzymes. The metabolites were extracted to toluene and read in a β-counter. The results are expressed in relative activity and normalized to the amount of protein in the tissue.

[6] = biological target: rat brain MAO-A (Rattus norvegicus (Rat), UniProt P21396); experiment: In vitro inhibition of rat brain MAO-A (14C-5-HT substrate); format: biochemical; settings: for IC50: estimated from the data in FIG. 1, rat brain MAO-A, read-out: MAO-A IC50
Chain of rat brain MAO-A (P21396 whole entry): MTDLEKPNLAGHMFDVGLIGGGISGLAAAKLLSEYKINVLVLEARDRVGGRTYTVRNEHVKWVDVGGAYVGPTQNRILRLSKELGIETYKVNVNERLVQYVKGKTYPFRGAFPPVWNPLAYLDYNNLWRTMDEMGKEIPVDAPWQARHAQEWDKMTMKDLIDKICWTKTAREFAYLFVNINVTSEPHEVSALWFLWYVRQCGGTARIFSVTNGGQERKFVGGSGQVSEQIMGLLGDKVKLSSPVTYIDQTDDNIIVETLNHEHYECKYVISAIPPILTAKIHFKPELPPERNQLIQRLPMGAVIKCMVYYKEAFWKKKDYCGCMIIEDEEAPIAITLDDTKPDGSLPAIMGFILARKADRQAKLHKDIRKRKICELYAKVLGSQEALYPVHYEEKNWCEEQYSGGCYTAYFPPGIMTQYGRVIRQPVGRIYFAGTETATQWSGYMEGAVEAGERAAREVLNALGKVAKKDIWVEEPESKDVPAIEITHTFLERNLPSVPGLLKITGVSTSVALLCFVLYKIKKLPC
Procedure: as §5, with “MAO. Protein concentration is determined with Bradford reagent at λ=595 nm, using BSA as a standard.” for “MAO.”
as §6
as §7, with “The activity of MAO-A and MAO-B was determined by the adapted method of Tipton & Youdim (Tipton K F, O'Sullivan J, Youdim M B, 1983, Encyclopedia of Neuroscience, 2004, G. Adelman and B. H. Smith, Elsevier). The test” for “The test”, “cpm units. […]” for “cpm units.”
as §8

[7] = concentration 0.01 mM, rat brain extracts
[8] = concentration 0.1 mM, rat brain extracts

Amount of compound remaining (%) ([1]; PBS, 25° C., 0.5 hours): 100% | Amount of compound remaining (%) ([1]; PBS, 25° C., 2 hours): 100% | Amount of compound remaining (%) ([1]; PBS, 25° C., 20 hours): 100% | Amount of compound remaining (%) ([1]; PBS, 25° C., 48 hours): 100% | Amount of compound remaining (%) ([1]; saline, 37° C., 0.5 hours): 100% | Amount of compound remaining (%) ([1]; saline, 37° C., 2 hours): 100% | Amount of compound remaining (%) ([1]; saline, 37° C., 20 hours): 100% | Amount of compound remaining (%) ([1]; saline, 37° C., 48 hours): 100%
Structure (SMILES): C#CCN(C)CCc1ccc(OC)c2ncccc12 [[O-Methyl-Compound 3], 8-methoxy-N-methyl-N-2-propyn-1-yl-5-quinolineethanamine]
Stability in aqueous solution (in words) [1]: highly stable chemically; also recorded: stable in PBS at 37 °C for at least two days

Amount of compound remaining (%) ([2]; 3 hours): 99.7% | Amount of compound remaining (%) ([2]; 8 hours): 97.7% | Amount of compound remaining (%) ([2]; 24 hours): 94.1% | Amount of compound remaining (%) ([2]; 48 hours): 100%
Structure (SMILES): C#CCN(C)CCc1cc(C2CC2)c(O)c2ncccc12 [Compound 7, 7-cyclopropyl-5-[2-(methyl-2-propyn-1-ylamino)ethyl]-8-quinolinol]

Structure (SMILES): C#CCN(C)C(C)c1ccc(O)c2ncccc12 (stereo not shown) [5-(1-(methyl(prop-2-ynyl) amino)ethyl)quinolin-8-ol]
Stability in aqueous solution (in words) [1]: **Decomposition of 5-(1-(methyl(prop-2-ynyl) amino)ethyl)quinolin-8-ol occurred immediately upon dissolution in PBS aspredicted by the working hypothesis

Structure (SMILES): [Fe+3] [Iron]
HepG2 cell death (%) [3]: 1.6% | SHSY-5Y cell death (%) [4]: −1.0%

Amount of compound remaining (%) ([2]; 3 hours): ≧100% | Amount of compound remaining (%) ([2]; 8 hours): 96.7% | Amount of compound remaining (%) ([2]; 24 hours): ≧100% | Amount of compound remaining (%) ([2]; 48 hours): ≧100%
Structure (SMILES): C#CCN(C)CCc1cc(F)c(O)c2ncccc12 [Compound 8, 7-fluoro-5-[2-(methyl-2-propyn-1-ylamino)ethyl]-8-quinolinol]

IC50 [5]: 100 nM | Inhibition of rat brain MAO-B in vitro (in words) [5]: potent inhibitors | IC50 ([6]; listed as compound 4): ~200 nM | IC50 [6]: 200 nM | Inhibition of rat brain MAO-A in vitro (in words) [6]: potent inhibitors | Stability in aqueous solution (in words) [1]: highly stable chemically | Amount of compound remaining (%) ([1]; PBS, 25° C., 0.5 hours): 100% | Amount of compound remaining (%) ([1]; PBS, 25° C., 2 hours): 100% | Amount of compound remaining (%) ([1]; PBS, 25° C., 20 hours): 100% | Amount of compound remaining (%) ([1]; PBS, 25° C., 48 hours): 100% | Amount of compound remaining (%) ([1]; saline, 25° C., 0.5 hours): 100% | Amount of compound remaining (%) ([1]; saline, 25° C., 2 hours): 100% | Amount of compound remaining (%) ([1]; saline, 25° C., 20 hours): 100% | Amount of compound remaining (%) ([1]; saline, 25° C., 48 hours): 100%
Structure (SMILES): C#CCN(C)CCCc1ccc(O)c2ncccc12 [Compound 4, 5-[3-(methyl-2-propyn-1-ylamino)propyl]-8-quinolinol]

inhibition at 10 µM [5, 7]: 87.8% | inhibition at 100 µM [5, 8]: 97.3% | IC50 [5]: 20 to 40 nM | Inhibition of rat brain MAO-B in vitro (in words) [5]: potent inhibitors | inhibition at 10 µM [6, 7]: 98.5% | inhibition at 100 µM [6, 8]: 99.7% | IC50 [6]: 250 to 300 nM | Inhibition of rat brain MAO-A in vitro (in words) [6]: potent inhibitors
Structure (SMILES): C#CCN(C)Cc1ccc(OC)c2ncccc12 [O-Methyl-M30]
Inhibition of rat brain MAO-B in vitro (in words) ([5]; listed as O-methyl M30): inhibits both brain MAO-A and MAO-B at apparently similar levels | Inhibition of rat brain MAO-A in vitro (in words) ([6]; listed as O-methyl M30): inhibits both brain MAO-A and MAO-B at apparently similar levels

Stability in aqueous solution (in words) [1]: decomposed immediately | Amount of compound remaining (%) ([1]; PBS, 25° C., 0.5 hours): 0.0** %
Structure (SMILES): C#CCN(C)C(C)c1ccc(O)c2ncccc12 (stereo not shown) [5-(1-(methyl(prop-2-ynyl)amino)ethyl)quinolin-8-ol] [5-[1-(methyl-2-propyn-1-ylamino)ethyl]-8-quinolinol]
